Reference: ChEMBL document CHEMBL1287771, “Novel hybrids of 15-membered 8a- and 9a-azahomoerythromycin A ketolides and quinolones as potent antibacterials” (2010)
Converted amounts (≈) assume the structure as drawn.

What was measured:
Assay type in all cases: functional
[1] = system: Staphylococcus aureus; experiment: Antibacterial activity against constitutive macrolide-lincosamide-streptogramin B-resistant Staphylococcus aureus B0330 by agar microdilution method
[2] = system: Streptococcus pyogenes; experiment: Antibacterial activity against inducible macrolide-lincosamide-streptogramin B-resistant Streptococcus pyogenes B0543 by agar microdilution method
[3] = system: Moraxella catarrhalis; experiment: Antibacterial activity against Moraxella catarrhalis B0324 by agar microdilution method
[4] = system: Haemophilus influenzae; experiment: Antibacterial activity against Haemophilus influenzae B0529 by agar microdilution method
[5] = system: Streptococcus pyogenes; experiment: Antibacterial activity against erythromycin A-susceptible Streptococcus pyogenes B0542 by agar microdilution method
[6] = system: Staphylococcus aureus; experiment: Antibacterial activity against erythromycin A-susceptible Staphylococcus aureus B0329 by agar microdilution method
[7] = system: Streptococcus pyogenes; experiment: Antibacterial activity against efflux-resistant Streptococcus pyogenes B0545 by agar microdilution method
[8] = system: Streptococcus pneumoniae; experiment: Antibacterial activity against erythromycin A-susceptible Streptococcus pneumoniae B0541 by agar microdilution method
[9] = system: Streptococcus pneumoniae; experiment: Antibacterial activity against constitutive macrolide-lincosamide-streptogramin B-resistant Streptococcus pneumoniae B0627 by agar microdilution method
[10] = system: Staphylococcus aureus; experiment: Antibacterial activity against inducible macrolide-lincosamide-streptogramin B-resistant Staphylococcus aureus B0538 by agar microdilution method
[11] = system: Streptococcus pyogenes; experiment: Antibacterial activity against constitutive macrolide-lincosamide-streptogramin B-resistant Streptococcus pyogenes B0544 by agar microdilution method
[12] = system: Staphylococcus aureus; experiment: Antibacterial activity against efflux-resistant Staphylococcus aureus B0331 by agar microdilution method
[13] = system: Streptococcus pneumoniae; experiment: Antibacterial activity against efflux-resistant Streptococcus pneumoniae B0326 by agar microdilution method

CC[C@H]1OC(=O)[C@H](C)C(=O)[C@H](C)[C@@H](O[C@@H]2O[C@H](C)C[C@H](N(C)C)[C@H]2O)[C@](C)(OCC(O)CNCC(C)C)C[C@@H](C)NC(=O)[C@H](C)[C@H](O)[C@@]1(C)O (stereo partly specified)
MIC [1]: > 64 µg/mL
MIC [2]: 64 µg/mL (≈ 89.1 µM)
MIC [3]: 16 µg/mL (≈ 22.3 µM)
MIC [4]: > 64 µg/mL
MIC [5]: 8 µg/mL (≈ 11.1 µM)
MIC [6]: 64 µg/mL (≈ 89.1 µM)
MIC [7]: 8 µg/mL (≈ 11.1 µM)
MIC [8]: 16 µg/mL (≈ 22.3 µM)
MIC [9]: > 64 µg/mL
MIC [10]: 64 µg/mL (≈ 89.1 µM)
MIC [11]: > 64 µg/mL
MIC [12]: 64 µg/mL (≈ 89.1 µM)
MIC [13]: 64 µg/mL (≈ 89.1 µM)

CC[C@H]1OC(=O)[C@H](C)C(=O)[C@H](C)[C@@H](O[C@H]2C[C@H](O)[C@@H](N(C)C)[C@@H](C)O2)[C@](C)(OC/C=C/c2cnc3ccccc3c2)C[C@@H](C)/C(=N\OC(C)=O)[C@H](C)[C@@H](O)[C@]1(C)O
MIC [1]: 64 µg/mL (≈ 80.2 µM)
MIC [2]: ≤ 0.125 µg/mL
MIC [3]: 8 µg/mL (≈ 10 µM)
MIC [4]: 32 µg/mL (≈ 40.1 µM)
MIC [5]: 0.125 µg/mL (≈ 0.157 µM)
MIC [6]: 0.25 µg/mL (≈ 0.313 µM)
MIC [7]: 0.5 µg/mL (≈ 0.627 µM)
MIC [8]: ≤ 0.125 µg/mL
MIC [9]: 8 µg/mL (≈ 10 µM)
MIC [10]: 0.5 µg/mL (≈ 0.627 µM)
MIC [11]: 32 µg/mL (≈ 40.1 µM)
MIC [12]: 1 µg/mL (≈ 1.25 µM)
MIC [13]: ≤ 0.125 µg/mL

CC[C@H]1OC(=O)[C@H](C)C(=O)[C@H](C)[C@@H](O[C@H]2C[C@H](O)[C@@H](N(C)C)[C@@H](C)O2)[C@](C)(OC/C=C/c2cnc3ccccc3c2)C[C@@H](C)/C(=N\O)[C@H](C)[C@@H](O)[C@]1(C)O
MIC [1]: > 64 µg/mL
MIC [2]: ≤ 0.125 µg/mL
MIC [3]: 4 µg/mL (≈ 5.29 µM)
MIC [4]: 8 µg/mL (≈ 10.6 µM)
MIC [5]: ≤ 0.125 µg/mL
MIC [6]: ≤ 0.125 µg/mL
MIC [7]: ≤ 0.125 µg/mL
MIC [8]: ≤ 0.125 µg/mL
MIC [9]: 4 µg/mL (≈ 5.29 µM)
MIC [10]: ≤ 0.125 µg/mL
MIC [11]: 32 µg/mL (≈ 42.3 µM)
MIC [12]: 0.5 µg/mL (≈ 0.661 µM)
MIC [13]: ≤ 0.125 µg/mL

CC[C@H]1OC(=O)[C@H](C)C(=O)[C@H](C)[C@@H](O[C@@H]2O[C@H](C)C[C@H](N(C)C)[C@H]2O)[C@](C)(OC/C=C/c2cnc3ccccc3c2)C[C@@H](C)NC(=O)[C@H](C)[C@@H]2OC(=O)O[C@]12C
MIC [1]: 64 µg/mL (≈ 81.8 µM)
MIC [2]: ≤ 0.125 µg/mL
MIC [3]: 0.25 µg/mL (≈ 0.32 µM)
MIC [4]: 1 µg/mL (≈ 1.28 µM)
MIC [5]: ≤ 0.125 µg/mL
MIC [6]: ≤ 0.125 µg/mL
MIC [7]: 0.5 µg/mL (≈ 0.639 µM)
MIC [8]: 0.06 µg/mL (≈ 0.0767 µM)
MIC [9]: 4 µg/mL (≈ 5.12 µM)
MIC [10]: 0.25 µg/mL (≈ 0.32 µM)
MIC [11]: 8 µg/mL (≈ 10.2 µM)
MIC [12]: 0.25 µg/mL (≈ 0.32 µM)
MIC [13]: ≤ 0.125 µg/mL

CC[C@H]1OC(=O)[C@H](C)C(=O)[C@H](C)[C@@H](O[C@@H]2O[C@H](C)C[C@H](N(C)C)[C@H]2O)[C@](C)(OCCCC2CNc3ccccc3C2)C[C@@H](C)NC(=O)[C@H](C)[C@H](O)[C@@]1(C)O (stereo partly specified)
MIC [1]: 64 µg/mL (≈ 84 µM)
MIC [2]: 16 µg/mL (≈ 21 µM)
MIC [3]: 1 µg/mL (≈ 1.31 µM)
MIC [4]: 16 µg/mL (≈ 21 µM)
MIC [5]: ≤ 0.125 µg/mL
MIC [6]: 2 µg/mL (≈ 2.62 µM)
MIC [7]: 8 µg/mL (≈ 10.5 µM)
MIC [8]: ≤ 0.125 µg/mL
MIC [9]: 64 µg/mL (≈ 84 µM)
MIC [10]: > 64 µg/mL
MIC [11]: > 64 µg/mL
MIC [12]: 64 µg/mL (≈ 84 µM)
MIC [13]: 8 µg/mL (≈ 10.5 µM)

C=CCO[C@]1(C)C[C@@H](C)NC(=O)[C@H](C)[C@H](O)[C@@](C)(O)[C@@H](CC)OC(=O)[C@H](C)[C@@H](O[C@@H]2C[C@@](C)(OC)[C@@H](O)[C@H](C)O2)[C@H](C)[C@H]1O[C@@H]1O[C@H](C)C[C@H](N(C)C)[C@H]1O
MIC [1]: > 64 µg/mL
MIC [2]: 16 µg/mL (≈ 20.3 µM)
MIC [3]: ≤ 0.125 µg/mL
MIC [4]: 1 µg/mL (≈ 1.27 µM)
MIC [5]: ≤ 0.125 µg/mL
MIC [6]: 0.25 µg/mL (≈ 0.317 µM)
MIC [7]: 16 µg/mL (≈ 20.3 µM)
MIC [8]: ≤ 0.125 µg/mL
MIC [9]: > 64 µg/mL
MIC [10]: > 64 µg/mL
MIC [11]: > 64 µg/mL
MIC [12]: 64 µg/mL (≈ 81.1 µM)
MIC [13]: 8 µg/mL (≈ 10.1 µM)

CC[C@H]1OC(=O)[C@H](C)[C@@H](O[C@@H]2C[C@@](C)(OC)[C@@H](O)[C@H](C)O2)[C@H](C)[C@@H](O[C@@H]2O[C@H](C)C[C@H](N(C)C)[C@H]2O)[C@](C)(OC/C=C/NCCc2ccc([N+](=O)[O-])cc2)C[C@@H](C)NC(=O)[C@H](C)[C@H](O)[C@@]1(C)O
MIC [1]: > 64 µg/mL
MIC [2]: 2 µg/mL (≈ 2.1 µM)
MIC [3]: 0.25 µg/mL (≈ 0.262 µM)
MIC [4]: 4 µg/mL (≈ 4.2 µM)
MIC [5]: ≤ 0.06 µg/mL
MIC [6]: 0.5 µg/mL (≈ 0.525 µM)
MIC [7]: 16 µg/mL (≈ 16.8 µM)
MIC [8]: 0.06 µg/mL (≈ 0.0629 µM)
MIC [9]: 32 µg/mL (≈ 33.6 µM)
MIC [10]: 64 µg/mL (≈ 67.1 µM)
MIC [11]: > 64 µg/mL
MIC [12]: 32 µg/mL (≈ 33.6 µM)
MIC [13]: 4 µg/mL (≈ 4.2 µM)

CC[C@H]1OC(=O)[C@H](C)[C@@H](O[C@@H]2C[C@@](C)(OC)[C@@H](O)[C@H](C)O2)[C@H](C)[C@@H](O[C@@H]2O[C@H](C)C[C@H](N(C)C)[C@H]2O)[C@](C)(OC/C=C/N[C@H](C)Cc2ccc([N+](=O)[O-])cc2)C[C@@H](C)NC(=O)[C@H](C)[C@H](O)[C@@]1(C)O
MIC [1]: > 64 µg/mL
MIC [2]: 8 µg/mL (≈ 8.27 µM)
MIC [3]: 2 µg/mL (≈ 2.07 µM)
MIC [4]: 16 µg/mL (≈ 16.5 µM)
MIC [5]: ≤ 0.125 µg/mL
MIC [6]: 0.5 µg/mL (≈ 0.517 µM)
MIC [7]: 32 µg/mL (≈ 33.1 µM)
MIC [8]: ≤ 0.125 µg/mL
MIC [9]: > 64 µg/mL
MIC [10]: > 64 µg/mL
MIC [11]: > 64 µg/mL
MIC [12]: 64 µg/mL (≈ 66.2 µM)
MIC [13]: 64 µg/mL (≈ 66.2 µM)

C=CCO[C@]1(C)C[C@@H](C)C(=O)N[C@H](C)[C@H](O)[C@@](C)(O)[C@@H](CC)OC(=O)[C@H](C)[C@@H](O[C@@H]2C[C@@](C)(OC)[C@@H](O)[C@H](C)O2)[C@H](C)[C@H]1O[C@@H]1O[C@H](C)C[C@H](N(C)C)[C@H]1O
MIC [1]: > 64 µg/mL
MIC [2]: 4 µg/mL (≈ 5.07 µM)
MIC [3]: 4 µg/mL (≈ 5.07 µM)
MIC [4]: 64 µg/mL (≈ 81.1 µM)
MIC [5]: ≤ 0.125 µg/mL
MIC [6]: > 64 µg/mL
MIC [7]: > 64 µg/mL
MIC [8]: > 64 µg/mL
MIC [9]: > 64 µg/mL
MIC [10]: > 64 µg/mL
MIC [11]: > 64 µg/mL
MIC [12]: > 64 µg/mL
MIC [13]: > 64 µg/mL

CC[C@H]1OC(=O)[C@H](C)[C@@H](O[C@@H]2C[C@@](C)(OC)[C@@H](O)[C@H](C)O2)[C@H](C)[C@@H](O[C@@H]2O[C@H](C)C[C@H](N(C)C)[C@H]2O)[C@](C)(OC/C=C/NCCc2ccc([N+](=O)[O-])cc2)C[C@@H](C)C(=O)N[C@H](C)[C@H](O)[C@@]1(C)O
MIC [1]: > 64 µg/mL
MIC [2]: 4 µg/mL (≈ 4.2 µM)
MIC [3]: 8 µg/mL (≈ 8.39 µM)
MIC [4]: 64 µg/mL (≈ 67.1 µM)
MIC [5]: 0.125 µg/mL (≈ 0.131 µM)
MIC [6]: 32 µg/mL (≈ 33.6 µM)
MIC [7]: 16 µg/mL (≈ 16.8 µM)
MIC [8]: > 64 µg/mL
MIC [9]: > 64 µg/mL
MIC [10]: > 64 µg/mL
MIC [11]: > 64 µg/mL
MIC [12]: 32 µg/mL (≈ 33.6 µM)
MIC [13]: 16 µg/mL (≈ 16.8 µM)

CC[C@H]1OC(=O)[C@H](C)C(=O)[C@H](C)[C@@H](O[C@@H]2O[C@H](C)C[C@H](N(C)C)[C@H]2O)[C@](C)(OCC(O)CN2CCN(c3cc4c(=O)c(C(=O)O)cn(C5CC5)c4cc3Cl)CC2)C[C@@H](C)NC(=O)[C@H](C)[C@H](O)[C@@]1(C)O (stereo partly specified)
MIC [1]: > 64 µg/mL
MIC [2]: 1 µg/mL (≈ 1.01 µM)
MIC [3]: ≤ 0.125 µg/mL
MIC [4]: 1 µg/mL (≈ 1.01 µM)
MIC [5]: ≤ 0.125 µg/mL
MIC [6]: 1 µg/mL (≈ 1.01 µM)
MIC [7]: 0.5 µg/mL (≈ 0.504 µM)
MIC [8]: ≤ 0.125 µg/mL
MIC [9]: 1 µg/mL (≈ 1.01 µM)
MIC [10]: 1 µg/mL (≈ 1.01 µM)
MIC [11]: 4 µg/mL (≈ 4.03 µM)
MIC [12]: 0.25 µg/mL (≈ 0.252 µM)
MIC [13]: 0.25 µg/mL (≈ 0.252 µM)

CC[C@H]1OC(=O)[C@H](C)C(=O)[C@H](C)[C@@H](O[C@@H]2O[C@H](C)C[C@H](N(C)C)[C@H]2O)[C@](C)(OC[C@@H](O)CN2CCN(c3ccc4c(c3F)c(=O)c(C(=O)O)cn4C3CC3)CC2)C[C@@H](C)NC(=O)[C@H](C)[C@H](O)[C@@]1(C)O
MIC [1]: 2 µg/mL (≈ 2.05 µM)
MIC [2]: ≤ 0.125 µg/mL
MIC [3]: ≤ 0.125 µg/mL
MIC [4]: ≤ 0.125 µg/mL
MIC [5]: ≤ 0.125 µg/mL
MIC [6]: ≤ 0.125 µg/mL
MIC [7]: 0.5 µg/mL (≈ 0.512 µM)
MIC [8]: ≤ 0.125 µg/mL
MIC [9]: ≤ 0.125 µg/mL
MIC [10]: 0.25 µg/mL (≈ 0.256 µM)
MIC [11]: 2 µg/mL (≈ 2.05 µM)
MIC [12]: 0.25 µg/mL (≈ 0.256 µM)
MIC [13]: ≤ 0.125 µg/mL
